Test results taken from US20220089578A1, “COMPOUNDS AS GLP-1R AGONISTS” (Terns Pharmaceuticals, Inc., priority 2020, published 2022).

Molecular target: human GLP-1R (Homo sapiens, UniProt P43220)
Test: GLP-1R Cell Assay 1: cAMP Hunter CHO-K1 GLP1R Gs cell line, HitHunter cAMP assay
Format: cell-based
Conditions: cAMP Hunter CHO-K1 GLP1R Gs cells, percent activity normalized to Exendin-4
Protocol: GLP-1R mediated agonist activity was determined using the cAMP Hunter CHO-K1 GLP1R Gs cell line (DiscoverX, cat# 95-0062C2), a stable CHO-K1 derived cell lines overexpressing naturally Gs coupled wild-type human GLP-1R (accession number: NM_002062.3). GLP-1R agonism in this cell line was detected by measuring cellular cAMP levels using the HitHunter cAMP assay kit (cat# 90-0075SM2), a homogenous, gain-of-signal competitive immune assay based on Enzyme Fragment Complementation (EFC) technology. In this system cellular cAMP competes with exogenous labeled cAMP (ED-cAMP) for binding to an anti-cAMP antibody. […] The luminescent signal is directly proportional to the amount of cellular cAMP.
For compound testing, cells were seeded in a total volume of 20 μL in white walled, 384-well microplates and incubated at 37° C. prior to compound testing. Prior to compound addition, cell culture media was removed by aspiration and replaced with 15 pt reagent buffer (2:1 HBSS/10 mM HEPES: cAMP XS+Ab reagent). Compounds were dissolved in DSMO and serially diluted (3-fold) prior to final dilution to 4X in assay buffer. Samples (5 μL) were added to cells and incubated at 37° C. for […] prior to 1 hour incubation with 20 pt cAMP XS+ED/CL lysis reagent and 3 hour incubation with 20 μL cAMP XS+EA reagent at room temperature. Microplates were read on a PerkinElmer Envision instrument. Compound activity was analyzed using CBIS data analysis suite (ChemInnovation). Percent activity was calculated based on duplicate assay runs and normalized to the positive control Exendin-4, a GLP-1R peptide agonist, using the following formula: […]
The effective compound concentration resulting in 50% response (EC50) was determined by non-linear regression analysis of dose-response curves.

Sequence of human GLP-1R (P43220 24-463): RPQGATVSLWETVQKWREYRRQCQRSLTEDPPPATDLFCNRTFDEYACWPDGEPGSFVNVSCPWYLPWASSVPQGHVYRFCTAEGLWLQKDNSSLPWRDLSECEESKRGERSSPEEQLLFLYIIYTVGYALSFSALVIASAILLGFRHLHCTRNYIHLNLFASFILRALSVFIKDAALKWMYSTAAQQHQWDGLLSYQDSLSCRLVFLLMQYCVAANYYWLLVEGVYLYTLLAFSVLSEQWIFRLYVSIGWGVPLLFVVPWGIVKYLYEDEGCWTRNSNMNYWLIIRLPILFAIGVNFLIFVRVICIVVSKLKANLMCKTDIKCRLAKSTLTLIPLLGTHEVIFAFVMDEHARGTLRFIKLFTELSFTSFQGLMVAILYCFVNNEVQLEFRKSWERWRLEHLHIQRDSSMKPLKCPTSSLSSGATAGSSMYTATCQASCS

EC50 (Table 2) [nM]	EC50 (Table 3) [nM]	Structure (SMILES)
202	–	O=C(O)c1ccc2nc(CN3CCN(c4cccc(OCC5CC(F)(F)C5)n4)CC3)n(C[C@@H]3CCO3)c2c1 [Compound 50, (S)-2-((4-(6-((3,3-difluorocyclobutyl)methoxy)pyridin-2-yl)piperazin-1-yl)methyl)-1-(oxetan-2-ylmethyl)-1H-benzo[d]imidazole-6-carboxylic acid]
> 500	–	O=C(O)c1ccc2nc(CN3CCC(n4nc(OCc5ccccc5)c5c4CCCC5)CC3)n(C[C@@H]3CCO3)c2c1 [Compound 23, (S)-2-((4-(3-(benzyloxy)-4,5,6,7-tetrahydro-1H-indazol-1-yl)piperidin-1-yl)methyl)-1-(oxetan-2-ylmethyl)-1H-benzo[d]imidazole-6-carboxylic acid]
> 500	–	CS(=O)(=O)N1CCC(COc2cccc(N3CCN(Cc4nc5ccc(C(=O)O)cc5n4C[C@@H]4CCO4)CC3)n2)CC1 [Compound 52, (S)-2-((4-(6-((1-(methylsulfonyl)piperidin-4-yl)methoxy)pyridin-2-yl)piperazin-1-yl)methyl)-1-(oxetan-2-ylmethyl)-1H-benzo[d]imidazole-6-carboxylic acid]
246	–	N#Cc1ccc(Cn2cnc3ccc(N4CCN(Cc5nc6ccc(C(=O)O)cc6n5C[C@@H]5CCO5)CC4)nc32)c(F)c1 [Compound 100, (S)-2-((4-(3-(4-cyano-2-fluorobenzyl)-3H-imidazo[4,5-b]pyridin-5-yl)piperazin-1-yl)methyl)-1-(oxetan-2-ylmethyl)-1H-benzo[d]imidazole-6-carboxylic acid]
> 500	–	CC(=O)N1CCC(COc2cccc(N3CCN(Cc4nc5ccc(C(=O)O)cc5n4C[C@@H]4CCO4)CC3)n2)CC1 [Compound 38, (S)-2-((4-(6-((1-acetylpiperidin-4-yl)methoxy)pyridin-2-yl)piperazin-1-yl)methyl)-1-(oxetan-2-ylmethyl)-1H-benzo[d]imidazole-6-carboxylic acid]
76.2	–	N#Cc1ccc(COc2cccc(C3CCN([C@H]4CCCn5c4nc4ccc(C(=O)O)cc45)CC3)n2)c(F)c1 [Compound 89, (S)-4-(4-(6-((4-cyano-2-fluorobenzyl)oxy)pyridin-2-yl)piperidin-1-yl)-1,2,3,4-tetrahydrobenzo[4,5]imidazo[1,2-a]pyridine-8-carboxylic acid]
–	> 500	N#Cc1ccc2c(c1)CCC[C@H]2Oc1cccc(C2CCN(Cc3nc4ccc(C(=O)O)cc4n3C[C@@H]3CCO3)CC2)n1 (single isomer, unassigned) [Compound 146-P1]
0.222	–	O=C(O)c1ccc2nc(CN3CCC(c4cccc(OCc5ncc(Cl)s5)n4)CC3)n(C[C@@H]3CCO3)c2c1 [Compound 134, (S)-2-((4-(6-((5-chlorothiazol-2-yl)methoxy)pyridin-2-yl)piperidin-1-yl)methyl)-1-(oxetan-2-ylmethyl)-1H-benzo[d]imidazole-6-carboxylic acid]
1.07	–	O=C(O)c1ccc2nc(CN3CCN(c4cccc(OCc5nc6c(F)cccc6s5)n4)CC3)n(C[C@@H]3CCO3)c2c1 [Compound 107, (S)-2-((4-(6-((4-fluorobenzo[d]thiazol-2-yl)methoxy)pyridin-2-yl)piperazin-1-yl)methyl)-1-(oxetan-2-ylmethyl)-1H-benzo[d]imidazole-6-carboxylic acid]
> 500	–	O=C(O)c1ccc2nc(CN3CCC(n4nccc4COc4ccccc4)CC3)n(C[C@@H]3CCO3)c2c1 (single isomer, unassigned) [Compound 26-P2]
0.00833	–	CCn1cncc1Cn1c(CN2CCC(c3cccc(OCc4ccc(C#N)cc4F)n3)CC2)nc2ccc(C(=O)O)cc21 [Compound 142, 2-((4-(6-((4-cyano-2-fluorobenzyl)oxy)pyridin-2-yl)piperidin-1-yl)methyl)-1-((1-ethyl-1H-imidazol-5-yl)methyl)-1H-benzo[d]imidazole-6-carboxylic acid]
3.84	–	O=C(O)c1ccc2nc(CN3CCN(c4cccc(OCc5ccncc5)n4)CC3)n(C[C@@H]3CCO3)c2c1 [Compound 42, (S)-1-(oxetan-2-ylmethyl)-2-((4-(6-(pyridin-4-ylmethoxy)pyridin-2-yl)piperazin-1-yl)methyl)-1H-benzo[d]imidazole-6-carboxylic acid]
> 500	–	O=C(O)c1ccc2nc(CN3CCN(c4nc(OCc5ccccc5)ns4)CC3)n(C[C@@H]3CCO3)c2c1 [Compound 32, (S)-2-((4-(3-(benzyloxy)-1,2,4-thiadiazol-5-yl)piperazin-1-yl)methyl)-1-(oxetan-2-ylmethyl)-1H-benzo[d]imidazole-6-carboxylic acid]
185	–	CC(C)c1cn(C2CCN(Cc3nc4ccc(C(=O)O)cc4n3C[C@@H]3CCO3)CC2)nc1OCc1ccc(C#N)cc1F [Compound 118, (S)-2-((4-(3-((4-cyano-2-fluorobenzyl)oxy)-4-isopropyl-1H-pyrazol-1-yl)piperidin-1-yl)methyl)-1-(oxetan-2-ylmethyl)-1H-benzo[d]imidazole-6-carboxylic acid]
102	–	C[C@H]1c2ccc(C#N)cc2CCN1c1cccc(N2CCN(Cc3nc4ccc(C(=O)O)cc4n3C[C@@H]3CCO3)CC2)n1 [Compound 84]
22.9	–	CCc1cn(C2CCN(Cc3nc4ccc(C(=O)O)cc4n3C[C@@H]3CCO3)CC2)nc1OCc1ccc(C#N)cc1F [Compound 124, (S)-2-((4-(3-((4-cyano-2-fluorobenzyl)oxy)-4-ethyl-1H-pyrazol-1-yl)piperidin-1-yl)methyl)-1-(oxetan-2-ylmethyl)-1H-benzo[d]imidazole-6-carboxylic acid]
–	> 500	N#Cc1ccc(CN2CCCc3ccc(C4CCN(Cc5nc6ccc(C(=O)O)cc6n5C[C@@H]5CCO5)CC4)nc32)c(F)c1 [Compound 143, (S)-2-((4-(8-(4-cyano-2-fluorobenzyl)-5,6,7,8-tetrahydro-1,8-naphthyridin-2-yl)piperidin-1-yl)methyl)-1-(oxetan-2-ylmethyl)-1H-benzo[d]imidazole-6-carboxylic acid]
4.58	–	N#Cc1cc(F)c2c(c1)CCC(c1cccc(N3CCN(Cc4nc5ccc(C(=O)O)cc5n4C[C@@H]4CCO4)CC3)n1)C2 (stereo partly drawn) [Compound 4, 2-((4-(6-(6-cyano-8-fluoro-1,2,3,4-tetrahydronaphthalen-2-yl)pyridin-2-yl)piperazin-1-yl)methyl)-1-((S)-oxetan-2-ylmethyl)-1H-benzo[d]imidazole-6-carboxylic acid]
> 500	–	N#Cc1ccc2c(c1)CCCN2c1cccc(N2CCN(Cc3nc4ccc(C(=O)O)cc4n3C[C@@H]3CCO3)CC2)n1 [Compound 76, (S)-2-((4-(6-(6-cyano-3,4-dihydroquinolin-1(2H)-yl)pyridin-2-yl)piperazin-1-yl)methyl)-1-(oxetan-2-ylmethyl)-1H-benzo[d]imidazole-6-carboxylic acid]
3.94	–	N#Cc1ccc(COc2nn(C3CCN(Cc4nc5ccc(C(=O)O)cc5n4C[C@@H]4CCO4)CC3)cc2Cl)c(F)c1 [Compound 102, (S)-2-((4-(4-chloro-3-((4-cyano-2-fluorobenzyl)oxy)-1H-pyrazol-1-yl)piperidin-1-yl)methyl)-1-(oxetan-2-ylmethyl)-1H-benzo[d]imidazole-6-carboxylic acid]
0.176	–	O=C(O)c1ccc2nc(CN3CCN(c4cccc(OCc5nc6ccc(Cl)cc6s5)n4)CC3)n(C[C@@H]3CCO3)c2c1 [Compound 113, (S)-2-((4-(6-((6-chlorobenzo[d]thiazol-2-yl)methoxy)pyridin-2-yl)piperazin-1-yl)methyl)-1-(oxetan-2-ylmethyl)-1H-benzo[d]imidazole-6-carboxylic acid]
10.6	–	CC1Cc2cc(C#N)cc(F)c2CN1c1cccc(N2CCN(Cc3nc4ccc(C(=O)O)cc4n3C[C@@H]3CCO3)CC2)n1 (stereo partly drawn) [Compound 133, 2-((4-(6-(6-cyano-8-fluoro-3-methyl-3,4-dihydroisoquinolin-2(1H)-yl)pyridin-2-yl)piperazin-1-yl)methyl)-1-(((S)-oxetan-2-yl)methyl)-1H-benzo[d]imidazole-6-carboxylic acid]
> 500	–	N#Cc1ccc(COc2cccc(C3CCN([C@@H]4COCCn5c4nc4ccc(C(=O)O)cc45)CC3)n2)c(F)c1 (single isomer, unassigned) [Compound 7-P2]
> 500	–	O=C(O)c1ccc2nc(CN3CCN(c4cccc(OCC5CC6(COC6)C5)n4)CC3)n(C[C@@H]3CCO3)c2c1 [Compound 43, (S)-2-((4-(6-((2-oxaspiro[3.3]heptan-6-yl)methoxy)pyridin-2-yl)piperazin-1-yl)methyl)-1-(oxetan-2-ylmethyl)-1H-benzo[d]imidazole-6-carboxylic acid]

Structure (SMILES)	EC50 (Table 2) [nM]	EC50 (Table 3) [nM]
O=C(O)c1ccc2nc(CN3CC[C@]4(c5cccc(OCc6ccccc6)n5)C[C@@H]4C3)n(C[C@@H]3CCO3)c2c1 [Compound 97, 2-(((1S,6R)-6-(6-(benzyloxy)pyridin-2-yl)-3-azabicyclo[4.1.0]heptan-3-yl)methyl)-1-(((S)-oxetan-2-yl)methyl)-1H-benzo[d]imidazole-6-carboxylic acid]	18.6	–
